These compounds were tested against Recombinant SARS-CoV-2 3CL Protease (Severe acute respiratory syndrome coronavirus 2 (2019-nCoV) (SARS-CoV-2), UniProt P0DTD1) (assay: biochemical). Conditions: 50% SARS-CoV-2 3CL protease inhibitory concentration; read-out: IC50.
Format: biochemical

Question: How did the IC50 turn out when `C[C@H](C#N)n1c(N2CC(C(C)(C)O)C2)c(-c2ccc(F)c(Cl)c2)c(=O)n(-c2cncc(Cl)c2)c1=O` (single isomer, unassigned) [Compound I-288] was run?
Answer: The IC50 was < 10 nM.

Question: For `C[C@@H](C#N)n1c(N2CC[C@@](O)(C(F)F)C2)c(-c2ccc(F)c(C(F)F)c2)c(=O)n(-c2cncc(Cl)c2)c1=O` (single isomer, unassigned) [Compound I-428], which IC50 is on record?
Answer: The IC50 was < 10 nM.

Question: How did the IC50 turn out when `Cc1ccc(-c2c(Cc3cc(F)c(F)c(F)c3)c(=O)n(-c3cncc(Cl)c3)c(=O)n2CC#N)cc1C` [Compound I-058] was run?
Answer: Its IC50 is < 10 nM.

Question: `Cc1cncc(-n2c(=O)c(Cc3cc(F)c(F)c(F)c3)c(N3CC4(CCOC4)C3)n(C(C)C#N)c2=O)c1` (racemic) [Compound I-054] was tested. Which IC50 did it give?
Answer: Its IC50 is 10 to 100 nM.

Question: Which IC50 does the source give for `N#CCn1c(N2CC3(CCOC3)C2)c(CC2CC(F)(F)C2)c(=O)n(-c2cncc(Cl)c2)c1=O` [Compound I-364] here?
Answer: The IC50 was > 100 nM.

Question: For `N#CCn1c(N2CCC(C(F)F)CC2)c(-c2ccc(F)c(F)c2)c(=O)n(-c2cncc(C#N)c2)c1=O` [Compound I-412], which IC50 is on record?
Answer: Its IC50 is < 10 nM.

Question: `N#CCn1c(N2CC3(C2)CC(F)(F)C3)c(-c2ccc(F)c(Cl)c2)c(=O)n(-c2cncc(OCF)n2)c1=O` [Compound I-353] was tested. Which IC50 did it give?
Answer: The IC50 was < 10 nM.

Question: For `CC(=O)OCC(=O)Cn1c(C)c(-c2ccc(F)c(Cl)c2)c(=O)n(-c2cncc(Cl)c2)c1=O` [Compound I-444], which IC50 is on record?
Answer: Its IC50 is > 100 nM.

Question: For `Cc1cncc(-n2c(=O)c(Cc3cc(F)c(F)c(F)c3)c(N3CCC(C)(O)CC3)n(CC#N)c2=O)c1` [Compound I-109], which IC50 is on record?
Answer: Its IC50 is < 10 nM.

Question: `N#CCn1c(C2(O)CCC2)c(-c2ccc(F)c(Cl)c2)c(=O)n(-c2cncc(Cl)c2)c1=O` [Compound I-348] was tested. Which IC50 did it give?
Answer: The IC50 was 10 to 100 nM.

Question: For `N#CCn1c(CCC(F)F)c(-c2ccc(F)c(Cl)c2)c(=O)n(-c2cncc(Cl)c2)c1=O` [Compound I-350], which IC50 is on record?
Answer: Its IC50 is < 10 nM.

Question: For `Cc1cncc(-n2c(=O)c(-c3ccc(F)c(Cl)c3)c(N3CC4(C3)CC(F)(F)C4)n(CC#N)c2=O)n1` [Compound I-198], which IC50 is on record?
Answer: The IC50 was < 10 nM.

Question: For `N#CCn1c(N2CCC(F)(F)C2)c(-c2ccc(F)c(Cl)c2)c(=O)n(-c2cncc(Cl)c2)c1=O` [Compound I-148], which IC50 is on record?
Answer: Its IC50 is < 10 nM.

Question: For `Cc1cncc(-n2c(=O)c(-c3ccc(F)c(Cl)c3)c(-c3ccc(N(C)C)cc3)n(CC#N)c2=O)c1` [Compound I-274], which IC50 is on record?
Answer: Its IC50 is < 10 nM.

Question: Which IC50 does the source give for `COC1CCN(c2c(Cc3cc(F)c(F)c(F)c3)c(=O)n(-c3cncc(C)c3)c(=O)n2CC#N)C1` (racemic) [Compound I-102] here?
Answer: Its IC50 is < 10 nM.

Question: For `Cc1cncc(-n2c(=O)c(-c3ccc(F)c(Cl)c3)c(C3=CCOCC3)n(CC#N)c2=O)c1` [Compound I-211], which IC50 is on record?
Answer: The IC50 was < 10 nM.

Question: `N#CCn1c(N2CCOC2=O)c(-c2ccc(F)c(Cl)c2)c(=O)n(-c2cncc(Cl)c2)c1=O` [Compound I-243] was tested. Which IC50 did it give?
Answer: The IC50 was > 100 nM.

Question: How did the IC50 turn out when `Cc1cncc(-n2c(=O)c(-c3cc(F)c(F)c(F)c3)c(/C=C/C(C)(C)O)n(CC#N)c2=O)c1` [Compound I-291] was run?
Answer: Its IC50 is 10 to 100 nM.

Question: How did the IC50 turn out when `N#CCn1c(N2CCC3(CNC(=O)C3)C2)c(-c2ccc(F)c(Cl)c2)c(=O)n(-c2cnc3cc(Cl)ccn23)c1=O` (racemic) [Compound I-051] was run?
Answer: Its IC50 is 10 to 100 nM.

Question: How did the IC50 turn out when `N#CCn1c(N2CC3(C2)CC(F)(F)C3)c(-c2cc(F)c(F)c(C#N)c2)c(=O)n(-c2cncc(Cl)c2)c1=O` [Compound I-366] was run?
Answer: Its IC50 is < 10 nM.

Question: For `Cc1cc(-n2c(=O)c(-c3ccc(F)c(Cl)c3)c(N3CCC(C)(C)CC3)n(CC#N)c2=O)cc(=O)[nH]1` [Compound I-170], which IC50 is on record?
Answer: The IC50 was 10 to 100 nM.

Question: With `Cc1cncc(-n2c(=O)c(-c3ccc(F)c(Cl)c3)c(N3CCC4(CCOC4)C3)n(CC#N)c2=O)c1` (racemic) [Compound I-070] as the compound, how does the IC50 read?
Answer: The IC50 was < 10 nM.

Question: How did the IC50 turn out when `N#CCn1c(N2CC(O)(C(F)(F)F)C2)c(-c2ccc(F)c(C(F)F)c2)c(=O)n(-c2cncc(Cl)c2)c1=O` [Compound I-340] was run?
Answer: The IC50 was < 10 nM.

Question: For `CCCCc1c(N2CC3(CCOC3)C2)n(CC#N)c(=O)n(-c2cncc(Cl)c2)c1=O` [Compound I-284], which IC50 is on record?
Answer: Its IC50 is 10 to 100 nM.

Question: `N#CCn1c(N2Cc3ccccc3C2)c(Cc2cc(F)c(F)c(F)c2)c(=O)n(-c2nnc3ccccn23)c1=O` [Compound I-156] was tested. Which IC50 did it give?
Answer: Its IC50 is 10 to 100 nM.

Each compound was assayed on SARS-CoV-2 (assay: Cytopathic effect (CPE) suppression effect confirmation test using HEK293T/ACE2-TMPRSS2 cells). Conditions: Severe acute respiratory syndrome coronavirus 2, HEK-293T, 72 h, read-out: EC50 (50% SARS-CoV-2 infected cell death inhibitory concentration), class, HEK293T/ACE2-TMPRSS2 cells, CPE suppression, CellTiter-Glo 2.0 after 3 days culture.
Format: cell-based

Question: How did the EC50 turn out when `Cc1ccc(-c2c(Cc3cc(F)c(F)c(F)c3)c(=O)n(-c3cncc(Cl)c3)c(=O)n2CC#N)cc1C` [Compound I-058] was run?
Answer: The EC50 was < 100 nM.

Question: `Cc1cncc(-n2c(=O)c(Cc3cc(F)c(F)c(F)c3)c(N3CCC(C)(O)CC3)n(CC#N)c2=O)c1` [Compound I-109] was tested. Which EC50 did it give?
Answer: The EC50 was < 100 nM.

Question: How did the EC50 turn out when `Cc1cncc(-n2c(=O)c(-c3ccc(F)c(Cl)c3)c(N3CC4(C3)CC(F)(F)C4)n(CC#N)c2=O)n1` [Compound I-198] was run?
Answer: Its EC50 is < 100 nM.

Question: Which EC50 does the source give for `N#CCn1c(N2CCC(F)(F)C2)c(-c2ccc(F)c(Cl)c2)c(=O)n(-c2cncc(Cl)c2)c1=O` [Compound I-148] here?
Answer: Its EC50 is < 100 nM.

Question: For `COC1CCN(c2c(Cc3cc(F)c(F)c(F)c3)c(=O)n(-c3cncc(C)c3)c(=O)n2CC#N)C1` (racemic) [Compound I-102], which EC50 is on record?
Answer: The EC50 was < 100 nM.

Question: `Cc1cncc(-n2c(=O)c(-c3ccc(F)c(Cl)c3)c(N3CCC4(CCOC4)C3)n(CC#N)c2=O)c1` (racemic) [Compound I-070] was tested. Which EC50 did it give?
Answer: The EC50 was < 100 nM.

Same assay, conditions: Severe acute respiratory syndrome coronavirus 2, HEK-293T, 72 h; HEK293T/ACE2-TMPRSS2 cells, CPE suppression, CellTiter-Glo 2.0 after 3 days culture; read-out: EC50 (50% SARS-CoV-2 infected cell death inhibitory concentration), class

Question: `Cc1cncc(-n2c(=O)c(Cc3cc(F)c(F)c(F)c3)c(N3CC4(CCOC4)C3)n(C(C)C#N)c2=O)c1` (racemic) [Compound I-054] was tested. Which EC50 did it give?
Answer: Its EC50 is < 100 nM.

Question: Which EC50 does the source give for `N#CCn1c(N2CCC3(CNC(=O)C3)C2)c(-c2ccc(F)c(Cl)c2)c(=O)n(-c2cnc3cc(Cl)ccn23)c1=O` (racemic) [Compound I-051] here?
Answer: The EC50 was 1000 to 5000 nM.

Question: For `Cc1cc(-n2c(=O)c(-c3ccc(F)c(Cl)c3)c(N3CCC(C)(C)CC3)n(CC#N)c2=O)cc(=O)[nH]1` [Compound I-170], which EC50 is on record?
Answer: The EC50 was < 100 nM.

Question: For `N#CCn1c(N2Cc3ccccc3C2)c(Cc2cc(F)c(F)c(F)c2)c(=O)n(-c2nnc3ccccn23)c1=O` [Compound I-156], which EC50 is on record?
Answer: Its EC50 is < 100 nM.

Same assay, conditions: Severe acute respiratory syndrome coronavirus 2, HEK-293T; 50% SARS-CoV-2 infected cell death inhibitory concentration; HEK293T/ACE2-TMPRSS2 cells; read-out: EC50

Question: For `C[C@H](C#N)n1c(N2CC(C(C)(C)O)C2)c(-c2ccc(F)c(Cl)c2)c(=O)n(-c2cncc(Cl)c2)c1=O` (single isomer, unassigned) [Compound I-288], which EC50 is on record?
Answer: Its EC50 is < 100 nM.

Question: How did the EC50 turn out when `C[C@@H](C#N)n1c(N2CC[C@@](O)(C(F)F)C2)c(-c2ccc(F)c(C(F)F)c2)c(=O)n(-c2cncc(Cl)c2)c1=O` (single isomer, unassigned) [Compound I-428] was run?
Answer: Its EC50 is < 100 nM.

Question: How did the EC50 turn out when `N#CCn1c(N2CC3(CCOC3)C2)c(CC2CC(F)(F)C2)c(=O)n(-c2cncc(Cl)c2)c1=O` [Compound I-364] was run?
Answer: Its EC50 is 100 to 1000 nM.

Question: How did the EC50 turn out when `N#CCn1c(N2CCC(C(F)F)CC2)c(-c2ccc(F)c(F)c2)c(=O)n(-c2cncc(C#N)c2)c1=O` [Compound I-412] was run?
Answer: The EC50 was < 100 nM.

Question: `N#CCn1c(N2CC3(C2)CC(F)(F)C3)c(-c2ccc(F)c(Cl)c2)c(=O)n(-c2cncc(OCF)n2)c1=O` [Compound I-353] was tested. Which EC50 did it give?
Answer: Its EC50 is < 100 nM.

Question: For `CC(=O)OCC(=O)Cn1c(C)c(-c2ccc(F)c(Cl)c2)c(=O)n(-c2cncc(Cl)c2)c1=O` [Compound I-444], which EC50 is on record?
Answer: The EC50 was 100 to 1000 nM.

Question: Which EC50 does the source give for `N#CCn1c(C2(O)CCC2)c(-c2ccc(F)c(Cl)c2)c(=O)n(-c2cncc(Cl)c2)c1=O` [Compound I-348] here?
Answer: Its EC50 is < 100 nM.

Question: For `N#CCn1c(CCC(F)F)c(-c2ccc(F)c(Cl)c2)c(=O)n(-c2cncc(Cl)c2)c1=O` [Compound I-350], which EC50 is on record?
Answer: The EC50 was < 100 nM.

Question: How did the EC50 turn out when `Cc1cncc(-n2c(=O)c(-c3ccc(F)c(Cl)c3)c(-c3ccc(N(C)C)cc3)n(CC#N)c2=O)c1` [Compound I-274] was run?
Answer: Its EC50 is < 100 nM.

Question: `Cc1cncc(-n2c(=O)c(-c3ccc(F)c(Cl)c3)c(C3=CCOCC3)n(CC#N)c2=O)c1` [Compound I-211] was tested. Which EC50 did it give?
Answer: Its EC50 is < 100 nM.

Question: How did the EC50 turn out when `N#CCn1c(N2CCOC2=O)c(-c2ccc(F)c(Cl)c2)c(=O)n(-c2cncc(Cl)c2)c1=O` [Compound I-243] was run?
Answer: Its EC50 is 100 to 1000 nM.

Question: Which EC50 does the source give for `Cc1cncc(-n2c(=O)c(-c3cc(F)c(F)c(F)c3)c(/C=C/C(C)(C)O)n(CC#N)c2=O)c1` [Compound I-291] here?
Answer: Its EC50 is < 100 nM.

Question: How did the EC50 turn out when `N#CCn1c(N2CC3(C2)CC(F)(F)C3)c(-c2cc(F)c(F)c(C#N)c2)c(=O)n(-c2cncc(Cl)c2)c1=O` [Compound I-366] was run?
Answer: The EC50 was < 100 nM.

Question: Which EC50 does the source give for `N#CCn1c(N2CC(O)(C(F)(F)F)C2)c(-c2ccc(F)c(C(F)F)c2)c(=O)n(-c2cncc(Cl)c2)c1=O` [Compound I-340] here?
Answer: The EC50 was < 100 nM.

Question: With `CCCCc1c(N2CC3(CCOC3)C2)n(CC#N)c(=O)n(-c2cncc(Cl)c2)c1=O` [Compound I-284] as the compound, how does the EC50 read?
Answer: The EC50 was < 100 nM.
